Measurements taken from ChEMBL document CHEMBL5260811, “Drug development against tuberculosis: Impact of alkaloids” (Eur J Med Chem, 2017).
Values after ≈ are worked out from the molar mass of the structure shown.

What was measured:
[1] = system: Mycolicibacterium fortuitum; assay: Antimycobacterial activity against Mycobacterium fortuitum; format: functional
[2] = system: Mycolicibacterium smegmatis; assay: Antimycobacterial activity against Mycobacterium smegmatis; format: functional; conditions: Mycolicibacterium smegmatis
Mycolicibacterium vaccae = assay: Antimycobacterial activity against Mycobacterium vaccae; format: functional
[3] = system: Mycobacterium tuberculosis; assay: Antimycobacterial activity against Mycobacterium tuberculosis H37Rv; format: functional
[4] = system: Mycobacterium intracellulare; assay: Antimycobacterial activity against Mycobacterium intracellulare; format: functional, organism-based
[5] = system: Mycobacterium tuberculosis; assay: Antimycobacterial activity against Mycobacterium tuberculosis; format: functional; conditions: Mycobacterium tuberculosis
[6] = system: Mycobacterium tuberculosis; assay: Antimycobacterial activity against Mycobacterium tuberculosis H37Ra; format: functional
Mycolicibacterium phlei = assay: Antimycobacterial activity against Mycobacterium phlei; format: functional
Mycobacterium kansasii = assay: Antimycobacterial activity against Mycobacterium kansasii; format: functional
Mycobacterium avium [7] = assay: Antimycobacterial activity against Mycobacterium avium; format: functional
[8] = system: Mycobacterium tuberculosis; assay: Antimycobacterial activity against Mycobacterium tuberculosis H37Ra by green fluorescent protein microplate assay; format: functional
[9] = system: Mycobacterium tuberculosis; assay: Antimycobacterial activity against Mycobacterium tuberculosis Rv3547; format: functional
[10] = system: Mycobacterium tuberculosis; assay: Antimycobacterial activity against MDR/XDR Mycobacterium tuberculosis; format: functional
[11] = system: Mycobacterium tuberculosis; assay: Antimycobacterial activity against Mycobacterium tuberculosis rv0678; format: functional
[12] = system: Mycobacterium tuberculosis; assay: Antimycobacterial activity against Mycobacterium tuberculosis in presence of isoniazid; format: functional
[13] = system: Mycobacterium tuberculosis; assay: Antimycobacterial activity against Mycobacterium tuberculosis in presence of ethambutol; format: functional
[14] = system: Mycobacterium tuberculosis; assay: Antimycobacterial activity against Mycobacterium tuberculosis in presence of banegasine; format: functional
Mycobacterium avium [15] = assay: Antimycobacterial activity against Mycobacterium avium in presence of banegasine; format: functional
[16] = system: Mycolicibacterium smegmatis; assay: Antimycobacterial activity against Mycobacterium smegmatis in presence of banegasine; format: functional

CCCCCCc1cc(Cl)c(O)c(C(=O)c2c[nH]c(Cl)c2Cl)c1O was tested, and the MIC [1] was 0.05 µg/mL (≈ 0.128 µM), the MIC [2] was 0.05 µg/mL (≈ 0.128 µM) and the MIC (Mycolicibacterium vaccae) was 0.05 µg/mL (≈ 0.128 µM).
Oc1cccc2c1[nH]c1c(C3=C[C@@]4(O)CC/C=C\CCCCN5CCC3[C@]3(C[C@@H]6/C=C\CCCCN6[C@H]34)C5)nccc12 (stereo partly specified) showed an MIC [3] of 0.4 µg/mL (≈ 0.708 µM) and an IC50 [4] of 3.5 µg/mL (≈ 6.2 µM).
O=C1CCCN2[C@@H](CC1)C[C@]13CN4CCCC/C=C\CC[C@](O)(C=C(c5nccc6c5[nH]c5c(O)cccc56)[C@@H]1CC4)[C@H]23 showed an MIC [3] of 0.4 µg/mL (≈ 0.689 µM) and an IC50 [4] of 3.5 µg/mL (≈ 6.03 µM).
Work on COc1ccc2c(c1)[nH]c1cc(O)c(C=O)cc12 yielded an MIC [5] of 100 µg/mL (≈ 415 µM) and an MIC [6] of 25 µg/mL (≈ 104 µM).
In the case of O=C1C=CC2=NC=CC3c4ccccc4N1C23 (stereo unspecified), the MIC [2] is reported as 8 µg/mL (≈ 36 µM) and the MIC (Mycolicibacterium phlei) is reported as 8 µg/mL (≈ 36 µM).
For CC/C=C(\C)C[C@H](C)C[C@H](C)/C(O)=C1/C(=O)N[C@@H]([C@@H](O)c2ccc(O)cc2)C1=O, the MIC (Mycolicibacterium vaccae) was 6.25 µg/mL (≈ 15.6 µM).
CC(C)=CCOc1ccc(C2=C(Cc3ccccc3)C(=O)N(O)C2=O)cc1 showed an MIC (Mycolicibacterium phlei) of 25 µg/mL (≈ 68.8 µM).
c1cncc(-c2ncc(-c3ccc4c(c3)OCO4)o2)c1 showed an MIC (Mycobacterium kansasii) of 25 µg/mL (≈ 93.9 µM), an MIC [5] of 25 µg/mL (≈ 93.9 µM) and an MIC (Mycobacterium avium [7]) of 25 µg/mL (≈ 93.9 µM).
For O=C([C@H]1[C@H](/C=C/c2ccc3c(c2)OCO3)[C@H](c2ccc3c(c2)OCO3)C=C[C@H]1C(=O)N1CCCCC1)N1CCCCC1, the MIC [6] was 12.5 µg/mL (≈ 21.9 µM).
Work on O=Cc1cc2c3ccc(O)cc3[nH]c2c2ccoc12 yielded an MIC [8] of 25 µg/mL (≈ 99.5 µM).
Work on O=C1C=CC2=NC=CC3c4cccc(O)c4N1C23 (stereo unspecified) yielded an MIC [2] of 8 µg/mL (≈ 33.6 µM) and an MIC (Mycolicibacterium phlei) of 8 µg/mL (≈ 33.6 µM).
CC/C=C(\C)C[C@H](C)C[C@H](C)/C(O)=C1/C(=O)N[C@@H](Cc2ccc(O)cc2)C1=O was tested, and the MIC (Mycolicibacterium vaccae) was 6.25 µg/mL (≈ 16.2 µM).
C[C@@]1(COc2ccc(N3CCC(Oc4ccc(OC(F)(F)F)cc4)CC3)cc2)Cn2cc([N+](=O)[O-])nc2O1 showed an MIC [9] of 0.006 µg/mL (≈ 0.0112 µM).
With CC(C)=CCc1c(O)c(C=O)cc2c1[nH]c1cc(O)ccc12 [7-HYDROXYHEPTAPHYLLINE] the MIC [8] was 25 µg/mL (≈ 84.6 µM).
In the case of COc1ccc2c3c(c4cc(OC)c(OC)cc4c2c1)CN1CCCC1C3 (stereo not drawn) [(+/-)-DEOXYTYLOPHORININE], the MIC [10] is reported as 6.25 µg/mL (≈ 17.2 µM).
COc1ccc2cc3[n+](cc2c1OC)CCc1cc2c(cc1-3)OCO2.[Cl-] [BERBERINE CHLORIDE] was tested, and the MIC [5] was 25 µg/mL, the MIC [2] was 0.78 µg/mL and the MIC [4] was 0.78 µg/mL.
Work on CC(C)/N=c1\cc2n(-c3ccc(Cl)cc3)c3ccccc3nc-2cc1Nc1ccc(Cl)cc1 [CLOFAZIMINE] yielded an MIC [11] of 0.12 µg/mL (≈ 0.253 µM).
N[C@@H]1CONC1=O [CYCLOSERINE] showed an MIC [1] of 3.12 µg/mL (≈ 30.6 µM), an MIC [5] of 3.12 µg/mL (≈ 30.6 µM) and an MIC (Mycobacterium avium [7]) of 3.12 µg/mL (≈ 30.6 µM). For the same compound, the MIC [2] was 3.12 µg/mL (≈ 30.6 µM) and the MIC [3] was 12.5 µg/mL (≈ 122 µM).
For COc1ccc2cc1Oc1ccc(cc1)C[C@H]1c3cc(c(OC)cc3CCN1C)Oc1c(OC)c(OC)cc3c1[C@H](C2)N(C)CC3 [FANCHININ], the MIC [12] was 0.25 µg/mL and the MIC [13] was 0.25 µg/mL.
Work on O=[N+]([O-])c1c(Cl)cccc1-c1c[nH]cc1Cl [PYRROLNITRIN] yielded an MIC [5] of 4 µg/mL (≈ 15.6 µM), an MIC (Mycobacterium avium [7]) of 4 µg/mL (≈ 15.6 µM) and an MIC [2] of 4 µg/mL (≈ 15.6 µM). The IC [14] was 0.075 µg/mL, the IC (Mycobacterium avium [15]) was 0.075 µg/mL and the IC [16] was 0.075 µg/mL.
